Assay: gradient 5% acetonitrile 3 min, to 50% in 2 min, to 85% in 15 min, held 3 min, 100 µL/min
Settings: column: Zorbax Extend-C18 2.1 x 50 mm; eluents: water / acetonitrile, 0.1% formic acid
In short: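 Retention times come from adduct peaks that were picked computationally and then checked by hand. The standards, pure and pooled in mixtures of ~100 molecules, were run on a Zorbax Extend-C18 column (2.1 × 50 mm, 1.8 μm) at 100 μL/min with water and acetonitrile, each with 0.1% formic acid. Detection was by quadrupole time-of-flight mass spectrometry in positive and negative ionization mode, with a dead volume of 40 μL and a dwell volume of 900 μL.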

SMILES | RP-LC retention time [s]
CC(C)CCN(Cc1ccco1)C(=O)Cn1nc2n(c1=O)CCC(N)CC2 (configuration not stated) | 633
COc1cccc(-c2nc(C3CCN(S(=O)(=O)c4cccc(C)c4)CC3)no2)c1 | 1150
Cc1ccc(C)c(-c2nc(NC(=O)c3cc(C)on3)sc2C)c1 | 1110
COc1ccc(CNC(=O)C2(C)CCCN(S(=O)(=O)c3ccc(C)cc3)C2)cc1 (configuration not stated) | 946
Cn1c(C(O)c2ccccc2)nc2ccccc21 (configuration not stated) | 545
O=C1NCCCn2cc(S(=O)(=O)N3CCN(Cc4ccccc4)CC3)cc21 | 758
COC(CNC(=O)C1CCN(C(=O)c2ncn3c2COC(c2ccc(F)cc2)C3)CC1)OC (configuration not stated) | 674
CC1(C(=O)NCc2ccc(F)cc2)CN(S(=O)(=O)c2ccccc2)CC(=O)N1C1CC1 (configuration not stated) | 816
CCn1nccc1C(=O)N1CCc2c(-c3ccc(OC)cc3)cccc2[C@H]1C | 1040
Cc1ccc(CNC(=O)c2ccc3c(c2)CNCCO3)cc1 | 617
O=C(NC1CCCCC1)NC1CCN(C(=O)C2CCC2)C1 (configuration not stated) | 680
O=C(Cn1ccc2ccn(Cc3cccnc3)c2c1=O)N1CCCC1 | 578
CCC(=O)NCC[C@@H]1CCc2ccc3c(c21)CCO3 | 833
Cc1onc(-c2ccccc2Cl)c1C(=O)Nc1nc(-c2ccc([N+](=O)[O-])cc2)cs1 | 1100
CCc1ccc(NC(=O)C2CCN(S(C)(=O)=O)c3cc(Cl)ccc3O2)cc1 (configuration not stated) | 944
CCS(=O)(=O)N1CCC(c2noc(COCCOC)n2)CC1 | 681
CCOC(=O)c1[nH]c(C)c(CCC(=O)N2CCC(C(=O)NCc3ccc(C)o3)CC2)c1C | 739
CC(C)NC(=O)CN1C(=O)COc2ccc(C(=O)N3CCCCCC3)cc21 | 680
CCN1CCn2cc(C(=O)NCc3cccc(Br)c3)nc2C1 | 600
CCCN1C(=O)CN(C2CCCCC2)C(=O)C1c1ccc(OC)c(OC)c1 (configuration not stated) | 777
COc1ccc(NC(=O)CCc2cccc3[nH]ccc23)cc1OC | 755
Cc1cc(C2CCCN2C(=O)Cc2cccc(F)c2)no1 (configuration not stated) | 790
Cc1csc(-c2cc(S(=O)(=O)NCCC(C)C)cn2CC(=O)N2CCCCC2)n1 | 1010
Cc1cc(C(=O)NCCn2ncc3c(=O)n(Cc4ccc(F)cc4)cnc32)c(C)o1 | 705

SMILES | RP-LC retention time [s]
Cc1cccc(-c2nnc(C)c(N3CCCCC3C)n2)c1 (configuration not stated) | 765
CCn1nc(C)cc1C(=O)N1CCNC(=O)C1(C)C | 568
O=C(NC1CC1)[C@@H]1C[C@H](Oc2cccnc2)CN1C(=O)C1CC=CC1 | 567
CCC(C(=O)N1CCN(C(=O)c2ccco2)CC1)n1c2ccccc2c2cnn(C)c(=O)c21 (configuration not stated) | 801
COc1cc(C2=NN(C(C)=O)C(c3ccncc3)O2)cc(OC)c1OC(C)=O (configuration not stated) | 714
COc1ccc(Cl)cc1S(=O)(=O)NCC1CCN(c2ncccn2)CC1 | 772
CCc1cc(=O)n(Cc2cccc(F)c2)c(N2CCOCC2)n1 | 909
O=S(=O)(Cc1ccccc1F)N1CCC(c2noc(-c3ccncc3)n2)C1 (configuration not stated) | 839
Cc1ccc(N2C(=O)C3N=NN(Cc4nc(-c5ccc(Br)cc5)no4)C3C2=O)cc1 (configuration not stated) | 1070
O=C(CCc1ccccc1)Nc1cnc(-c2cccnc2)nc1 | 690
CCn1ccc(C(=O)N2CCN(c3nc(CN4CCC(C)CC4)cs3)CC2)n1 | 613
O=C(NCC(F)(F)F)c1ccc(N2CCCC2)nn1 | 570
O=C(CN1CCN(C(=O)Nc2ccc(Cl)cc2)CC1=O)NC1CC1 | 605
COc1ccc(-c2noc(-c3ncn4c3COC(c3ccc(F)cc3)C4)n2)c(OC)c1 (configuration not stated) | 954
COc1ccc(N2C=C(C#N)S(=O)(=O)c3cc(F)ccc32)c(OC)c1 | 893
CCn1ccc2cc(S(=O)(=O)N3CCC(C(=O)NCC4CCCO4)CC3)ccc21 (configuration not stated) | 771
CCNC(=O)c1nnc(-c2ccc(S(=O)(=O)N3CCC(C)CC3)cc2)o1 | 875
N#CCSc1nnc2sc3ccccc3n12 | 671
O=C(O)c1ccc(CCCc2ccc(OCCc3ccc(F)cc3)cc2)o1 | 1090
Cc1nccn1Cc1nc(-c2ccc(Br)cc2)no1 | 663
CCOc1cc(C(=O)N2CCNC(=O)C2C)cc(OCC)c1OCC (configuration not stated) | 638
COCCn1c(C2CCN(S(=O)(=O)c3ccc(C(C)C)cc3)C2)nc2cccnc21 (configuration not stated) | 927
Cc1ccc(-c2nnc(Cc3nc(-c4cccc(F)c4)no3)o2)cc1 | 1060

The next lines start with the values.

RP-LC retention time [s] | SMILES
618 | CCCN1CCN(c2cc(C(=O)O)c3cc(NS(=O)(=O)c4cc(F)ccc4F)ccc3n2)CC1
721 | Cc1cc(NC(=O)C2CCCN(c3nnc4cccc(C)n34)C2)ccc1F (configuration not stated)
758 | CCCCC(=O)Nc1ccc2nc(N3CCN(c4cccc(Cl)c4)CC3)cc(C(=O)O)c2c1
1100 | CCCc1ccc(S(=O)(=O)N2CCC(C(=O)NCCc3csc(-c4ccccc4)n3)CC2)cc1
1010 | CCc1ccccc1NC(=O)CSc1cc(N2CCN(c3ccc(OC)cc3)CC2)ncn1
706 | Cc1cc(C)n(Cc2ccc(C(=O)N3CCN(c4ccc(=O)n(-c5ccccc5)n4)CC3)o2)n1
595 | O=C(c1cc(-c2ccccc2)n[nH]1)N1CCN(c2ccc(N3CCOCC3)nn2)CC1
770 | COc1cccc(CC(=O)N2CCC(C(=O)NCCc3csc(-c4cccs4)n3)CC2)c1
825 | CCc1ccc(CNC(=O)C2CCN(Cc3cn(CC)c4ccc(Cl)cc34)CC2)cc1
1000 | COc1ccc(N2CCN(c3cc(SCC(=O)Nc4cccc(SC)c4)ncn3)CC2)cc1
670 | Cc1ccccc1-c1noc(-c2cccnc2N2CCN(C)CC2)n1
753 | Cc1ccc(C)c(NC(=O)C2CCc3nc(N4CCOCC4)ncc3C2)c1 (configuration not stated)
589 | COc1ccc(-c2nc(N3CCN(C4CCCCC4)CC3)c3ccccc3n2)cc1
576 | CCNc1cc(C)nc(N2CCN(C(=O)c3ccccc3Cl)CC2)n1
707 | CCn1cc(CN2CCC(C(=O)NCc3ccccc3C)CC2)c2cc(OC)ccc21
669 | CC(C(=O)N1CCN(Cc2ccc3c(c2)OCO3)CC1)n1c2ccccc2c2cnn(C)c(=O)c21 (configuration not stated)
790 | CC(CCc1ccccc1)NC(=O)C1CCN(Cc2cn(C)c3ccc(Cl)cc23)CC1 (configuration not stated)
864 | CCOc1ccccc1N1CCN(c2cc(C(=O)O)c3cc(NC(=O)C4CCC4)ccc3n2)CC1
1130 | Cc1ccc(S(=O)(=O)c2cnc(N3CCN(c4cccc(C)c4)CC3)nc2N)cc1
869 | CCOC(=O)c1nc(NCc2ccc(CC)cc2)c2ccccc2n1
